According to patent publication US20070003585A1, “Topical skin treating compositions” (STIEFEL LABORATORIES, INC., priority 2005, published 2007):
Like-named read-outs stand apart in the source and are kept apart here.

What was measured:
[1] = Storage stability of composition containing 0.209% of tazarotene and 2.13% of clindamycin (Example 14); assay type: physicochemical; conditions: Example 14 composition, initial 0.209%
[2] = Storage stability of composition containing […] of tazarotene and […] of clindamycin (Example 16); assay type: physicochemical; conditions: Example 16 composition, initial […], 6 months
[3] = Example 7 composition, initial […]
[4] = Storage stability of composition containing 2.15% of benzoyl peroxide, […] of tazarotene, and […] of clindamycin (Example 8); assay type: physicochemical; conditions: Example 8 composition, initial […], 6 months
[5] = Storage stability of composition containing 2.02% of benzoyl peroxide and 0.099% of tazarotene (Example 17); assay type: physicochemical; conditions: Example 17 composition, initial […]
Source text: (§1) The results are as follows:

[6] = Example 6 composition, initial […]
[7] = Example 15 composition, initial 0.109%
[8] = Example 11 composition, initial […]
[9] = Example 12 composition, initial […]
[10] = Example 13 composition, initial […]
[11] = Storage stability of composition containing 2.02% of benzoyl peroxide, […] of tazarotene, and […] of clindamycin (Example 9); assay type: physicochemical; conditions: Example 9 composition, initial […]
[12] = Storage stability of composition containing 5.18% of benzoyl peroxide and 0.099% of tazarotene (Example 18); assay type: physicochemical; conditions: Example 18 composition, initial […]
Source text: as §1

## CCOC(=O)c1ccc(C#Cc2ccc3c(c2)C(C)(C)CCS3)nc1 [Tazarotene]
[1]; 4 weeks, 25° C.
  Tazarotene (as % w/w): 0.208 % w/w
[1]; 4 weeks, 30° C.
  Tazarotene (as % w/w): 0.208 % w/w
[1]; 4 weeks, 40° C.
  Tazarotene (as % w/w): 0.205 % w/w
[1]; 6 months, 25° C.
  Tazarotene (as % w/w): 0.206 % w/w
[1]; 6 months, 30° C.
  Tazarotene (as % w/w): 0.206 % w/w
[1]; 6 months, 40° C.
  Tazarotene (as % w/w): 0.205 % w/w
[1]; 90 days, 25° C.
  Tazarotene (as % w/w): 0.204 % w/w
[1]; 90 days, 30° C.
  Tazarotene (as % w/w): 0.208 % w/w
[1]; 90 days, 40° C.
  Tazarotene (as % w/w): 0.208 % w/w
[2]; 6° C.
  Tazarotene (as % w/w): 0.101 % w/w
[2]; 25° C.
  Tazarotene (as % w/w): 0.102 % w/w
[2]; 30° C.
  Tazarotene (as % w/w): 0.104 % w/w
[2]; 40° C.
  Tazarotene (as % w/w): 0.103 % w/w
[3]; 2 weeks, 6° C.
  Tazarotene (as % w/w): 0.104 % w/w
[3]; 2 weeks, 25° C.
  Tazarotene (as % w/w): 0.098 % w/w
[3]; 2 weeks, 30° C.
  Tazarotene (as % w/w): 0.088 % w/w
[3]; 2 weeks, 40° C.
  Tazarotene (as % w/w): 0.080 % w/w
[3]; 6 months, 6° C.
  Tazarotene (as % w/w): 0.106 % w/w
[3]; 6 months, 25° C.
  Tazarotene (as % w/w): 0.090 % w/w
[3]; 6 months, 30° C.
  Tazarotene (as % w/w): 0.082 % w/w
[3]; 6 months, 40° C.
  Tazarotene (as % w/w): 0.046 % w/w
[4]; 6° C.
  Tazarotene (as % w/w): 0.099 % w/w
[4]; 25° C.
  Tazarotene (as % w/w): 0.097 % w/w
[4]; 30° C.
  Tazarotene (as % w/w): 0.079 % w/w
[4]; 40° C.
  Tazarotene (as % w/w): 0.057 % w/w
[5]; 6 months, 6° C.
  Tazarotene (as % w/w): 0.108 % w/w
[5]; 6 months, 25° C.
  Tazarotene (as % w/w): 0.081 % w/w
[5]; 6 months, 30° C.
  Tazarotene (as % w/w): 0.070 % w/w
[5]; 6 months, 40° C.
  Tazarotene (as % w/w): 0.009 % w/w
[5]; 90 days, 6° C.
  Tazarotene (as % w/w): 0.106 % w/w
[5]; 90 days, 25° C.
  Tazarotene (as % w/w): 0.088 % w/w
[5]; 90 days, 30° C.
  Tazarotene (as % w/w): 0.085 % w/w
[5]; 90 days, 40° C.
  Tazarotene (as % w/w): 0.044 % w/w
[6]; 2 weeks, 25° C.
  Tazarotene (as % w/w): 0.088 % w/w
[6]; 2 weeks, 30° C.
  Tazarotene (as % w/w): 0.085 % w/w
[6]; 2 weeks, 40° C.
  Tazarotene (as % w/w): 0.081 % w/w
[6]; 90 days, 6° C.
  Tazarotene (as % w/w): 0.094 % w/w
[6]; 90 days, 25° C.
  Tazarotene (as % w/w): 0.090 % w/w
[6]; 90 days, 30° C.
  Tazarotene (as % w/w): 0.085 % w/w
[6]; 90 days, 40° C.
  Tazarotene (as % w/w): 0.078 % w/w
[7]; 60 days, 6° C.
  Tazarotene (as % w/w): 0.11 % w/w
[7]; 60 days, 25° C.
  Tazarotene (as % w/w): 0.109 % w/w
[7]; 60 days, 30° C.
  Tazarotene (as % w/w): 0.105 % w/w
[7]; 60 days, 40° C.
  Tazarotene (as % w/w): 0.107 % w/w
[7]; 90 days, 6° C.
  Tazarotene (as % w/w): 0.107 % w/w
[7]; 90 days, 25° C.
  Tazarotene (as % w/w): 0.111 % w/w
[7]; 90 days, 30° C.
  Tazarotene (as % w/w): 0.108 % w/w
[7]; 90 days, 40° C.
  Tazarotene (as % w/w): 0.116 % w/w
[8]; 2 weeks, 6° C.
  Tazarotene (as % w/w): 0.106 % w/w
[8]; 2 weeks, 25° C.
  Tazarotene (as % w/w): 0.098 % w/w
[8]; 2 weeks, 40° C.
  Tazarotene (as % w/w): 0.089 % w/w
[8]; 6 months, 6° C.
  Tazarotene (as % w/w): 0.107 % w/w
[8]; 6 months, 25° C.
  Tazarotene (as % w/w): 0.093 % w/w
[8]; 6 months, 40° C.
  Tazarotene (as % w/w): 0.014 % w/w
[8]; 30 days, 6° C.
  Tazarotene (as % w/w): 0.105 % w/w
[8]; 30 days, 25° C.
  Tazarotene (as % w/w): 0.094 % w/w
[8]; 30 days, 40° C.
  Tazarotene (as % w/w): 0.084 % w/w
[8]; 90 days, 6° C.
  Tazarotene (as % w/w): 0.106 % w/w
[8]; 90 days, 25° C.
  Tazarotene (as % w/w): 0.093 % w/w
[8]; 90 days, 40° C.
  Tazarotene (as % w/w): 0.086 % w/w
[9]; 2 weeks, 6° C.
  Tazarotene (as % w/w): 0.099 % w/w
[9]; 2 weeks, 25° C.
  Tazarotene (as % w/w): 0.090 % w/w
[9]; 2 weeks, 30° C.
  Tazarotene (as % w/w): 0.090 % w/w
[9]; 2 weeks, 40° C.
  Tazarotene (as % w/w): 0.085 % w/w
[9]; 6 months, 6° C.
  Tazarotene (as % w/w): 0.096 % w/w
[9]; 6 months, 25° C.
  Tazarotene (as % w/w): 0.091 % w/w
[9]; 6 months, 30° C.
  Tazarotene (as % w/w): 0.088 % w/w
[9]; 6 months, 40° C.
  Tazarotene (as % w/w): None Detected
[9]; 90 days, 6° C.
  Tazarotene (as % w/w): 0.102 % w/w
[9]; 90 days, 25° C.
  Tazarotene (as % w/w): 0.090 % w/w
[9]; 90 days, 30° C.
  Tazarotene (as % w/w): 0.089 % w/w
[9]; 90 days, 40° C.
  Tazarotene (as % w/w): 0.081 % w/w
[10]; 2 weeks, first temperature column (head not given; 6° C. by analogy)
  Tazarotene (as % w/w): 0.097 % w/w
[10]; 2 weeks, fourth temperature column (head not given; 40° C. by analogy)
  Tazarotene (as % w/w): 0.081 % w/w
[10]; 2 weeks, second temperature column (head not given; 25° C. by analogy)
  Tazarotene (as % w/w): 0.089 % w/w
[10]; 2 weeks, third temperature column (head not given; 30° C. by analogy)
  Tazarotene (as % w/w): 0.086 % w/w
[10]; 6 months, first temperature column (head not given; 6° C. by analogy)
  Tazarotene (as % w/w): 0.098 % w/w
[10]; 6 months, fourth temperature column (head not given; 40° C. by analogy)
  Tazarotene (as % w/w): None Detected
[10]; 6 months, second temperature column (head not given; 25° C. by analogy)
  Tazarotene (as % w/w): 0.085 % w/w
[10]; 6 months, third temperature column (head not given; 30° C. by analogy)
  Tazarotene (as % w/w): 0.085 % w/w
[10]; 90 days, first temperature column (head not given; 6° C. by analogy)
  Tazarotene (as % w/w): 0.100 % w/w
[10]; 90 days, fourth temperature column (head not given; 40° C. by analogy)
  Tazarotene (as % w/w): 0.079 % w/w
[10]; 90 days, second temperature column (head not given; 25° C. by analogy)
  Tazarotene (as % w/w): 0.090 % w/w
[10]; 90 days, third temperature column (head not given; 30° C. by analogy)
  Tazarotene (as % w/w): 0.087 % w/w
[11]; 6 months, 6° C.
  Tazarotene (as % w/w): 0.104 % w/w
[11]; 6 months, 25° C.
  Tazarotene (as % w/w): 0.089 % w/w
[11]; 6 months, 30° C.
  Tazarotene (as % w/w): 0.089 % w/w
[11]; 6 months, 40° C.
  Tazarotene (as % w/w): 0.003 % w/w
[11]; 90 days, 6° C.
  Tazarotene (as % w/w): 0.103 % w/w
[11]; 90 days, 25° C.
  Tazarotene (as % w/w): 0.092 % w/w
[11]; 90 days, 30° C.
  Tazarotene (as % w/w): 0.090 % w/w
[11]; 90 days, 40° C.
  Tazarotene (as % w/w): 0.071 % w/w
[12]; 6 months, 6° C.
  Tazarotene (as % w/w): 0.106 % w/w
[12]; 6 months, 25° C.
  Tazarotene (as % w/w): 0.088 % w/w
[12]; 6 months, 30° C.
  Tazarotene (as % w/w): 0.083 % w/w
[12]; 6 months, 40° C.
  Tazarotene (as % w/w): 0.004 % w/w
[12]; 90 days, 6° C.
  Tazarotene (as % w/w): 0.103 % w/w
[12]; 90 days, 25° C.
  Tazarotene (as % w/w): 0.093 % w/w
[12]; 90 days, 30° C.
  Tazarotene (as % w/w): 0.087 % w/w
[12]; 90 days, 40° C.
  Tazarotene (as % w/w): 0.051 % w/w
